Data on twelve compounds can be found in article PMC9033093, “Antiplasmodial Activity of Vachellia xanthophloea (Benth.) P.J.H. Hurter (African Fever Tree) and Its Constituents” (Pharmaceuticals, 2022).

“And” between values parts separate entries of the source, which are not always exact repeats. Equal values may be shown once. Read-outs that look alike come from different tables or passages of the source.

Data set [1] in a line: In vitro cytotoxicity, resazurin assay. It is filed as cell-based, human. The following applies: human, 24 h; for viability at 24 h, 10 µg/mL: HeLa cell viability at 10 µg/mL, read-out: Viability % ± SD at 10 μg/mL; for viability at 24 h, 50 µg/mL: HeLa cell viability at 50 µg/mL, read-out: Viability % ± SD at 50 μg/mL. Here is the method: (§1) The cytotoxicity of the compounds/extracts against HeLa (human cervix adenocarcinoma) cells (Cellonex, South Africa) was evaluated by plating the cells at a density of 2 × 10^4 cells per well in a DMEM medium supplemented with 10% foetal bovine serum and penicillin/streptomycin/amphotericin B antibiotics in 96-well plates. After incubating for 24 h at 37 °C in a humidified 5% CO2 incubator, the test samples were added at a final concentration of 50 µg/mL or 10 µg/mL to the cells in triplicate wells (final volume per well was 200 µL) and further incubated or 24 h. Subsequently, a 20 µL resazurin stock solution (0.6 mM resazurin in phosphate-buffered saline) was added to each well and, after a 4 h incubation, the fluorescence (Exc560/Emm590) was measured on a Spectramax M3 plate reader. The percentage cell viability in the treated wells relative to the wells containing the untreated control cells was calculated from the fluorescence values after subtracting the background readings obtained from the empty wells. Emetine was used as the positive control.
A general note: Resazurin is reduced to fluorescent resorufin, in cell work by metabolically active cells.

For data set [2], the system named is Plasmodium falciparum 3D7 clone. In words: In vitro antiplasmodial activity, parasite lactate dehydrogenase (pLDH) assay. The following applies: for viability at 10 µg/mL: 3D7, read-out: Viability % ± SD at 10 μg/mL; for viability at 50 µg/mL: 3D7, read-out: Viability % ± SD at 50 μg/mL. Here is the method:
Malaria parasites (Plasmodium falciparum 3D7 clone) were maintained in an RPMI 1640 medium containing 2 mM L-glutamine and 25 mM Hepes (Lonza). The medium was further supplemented with 5% Albumax II, 20 mM glucose, 0.65 mM hypoxanthine, 60 µg/mL gentamycin, and 2–4% haematocrit human red blood cells. The parasites were cultured at 37 °C under an atmosphere of 5% CO2, 5% O2, and 90% N2 in a sealed T75 culture flask.
For the antiplasmodial activity, the extracts and isolated compounds were first tested at 50 µg/mL and 10 µg/mL in duplicate experiments. IC50 values determined from the dose-response curves were evaluated for the compounds only showing < 50% viability without cytotoxicity at 10 µg/mL. For the IC50 screening, a range of concentrations of the extracts and compounds starting from 100 µg/mL and extended by 3-fold serial dilution were tested in triplicate and standard deviations (SD) were derived where applicable. The parasite viability was determined by measuring the activity of parasite lactate dehydrogenase (pLDH) as described by Makler et al.. Serial dilutions of the extracts and compounds were added to the in vitro cultures of P. falciparum (3D7 clone) in 96-well plates (1% haematocrit, 2% parasitaemia) and incubated for 48 h. To 125 µL solutions containing a mixture of Malstat (0.18 M lactic acid, 0.13 mM 3-acetylpyridine adenine dinucleotide, 0.16% Triton X-100, and 44 mM Tris, pH 9) and NBT/PES (0.39 mM nitro blue tetrazolium and 0.05 mM phenazine ethosulfate), 20 µL of the incubated culture was then added in a fresh 96-well plate. […] The % parasite viability, as indicated by the pLDH activity in the treated wells compared with the untreated controls, was calculated from the absorbance values for each compound/extract. The parasitised RBCs in the absence of test compounds/drug were taken as the untreated control with 100% viability.

Data set [3] has as its system HeLa (human cervix adenocarcinoma) cells. Description: In vitro cytotoxicity, resazurin assay. It is filed as cell-based. The conditions noted are these: for IC50: Homo sapiens, HeLa, positive control. Here is the method:
as §1

Data set [4] concerns P. falciparum. The conditions noted are these: cited from earlier work.

`COc1c(-c2ccc(O)c(O)c2)oc2cc(O)cc(O)c2c1=O` [3-O-Methylquercetin (4), 3-O-methylquercetin]: in data set [1] (HeLa cells), the viability at 24 h, 10 µg/mL stood at 57.9 ± 5.2% and the viability at 24 h, 50 µg/mL stood at 4.5 ± 0.1%. Further, in data set [2], the viability at 10 µg/mL came out at 82.9 ± 3% and the viability at 50 µg/mL turned out to be 21.9 ± 1.5%.
For orientation: IC50 means the midpoint of a concentration-inhibition curve. As to `CCN(CC)CCCC(C)Nc1ccnc2cc(Cl)ccc12` (stereo not shown) [Chloroquine, reference compound], the IC50 was 14 nM in data set [2] (3D7, 48 h) and 10 to 50 nM in data set [2] (3D7, read-out: IC50 values ranged).
On to `O=C1c2c(O)cc(O)cc2O[C@H](c2ccc(O)c(O)c2)[C@H]1O` [Dihydroquercetin (6), dihydroquercetin], for which the IC50 in data set [2] (3D7, 48 h) was 27.6 µg/mL and 90.7 µM.
Consider `CC[C@H]1CN2CCc3cc(OC)c(OC)cc3[C@@H]2C[C@@H]1C[C@H]1NCCc2cc(OC)c(OC)cc21` [Emetine, reference compound], for which the IC50 in data set [3] (printed in the 10 µg/mL column) turned out to be 40 nM; in data set [3] (printed in the 50 µg/mL column), 33 nM.
In the case of `O=c1c(O)c(-c2ccc(O)cc2)oc2cc(O)cc(O)c12` [Kaempferol (10), kaempferol], the “antiplasmodial activity of common dietary flavonoids (reported)” value (“antiplasmodial activity … (reported)” below) in data set [4] is recorded as “moderate to weak antiplasmodial activity”. Further, in data set [2] (3D7, 48 h), the IC50 is 25 µg/mL and 87.3 µM.
For the compound `COC(=O)c1cc(O)c(O)c(O)c1` [Methyl gallate (9), methyl gallate], the “Viability % ± SD at 10 μg/mL” value in data set [3] (HeLa cell viability at 10 µg/mL, 24 h) amounted to 68.6 ± 2.0%. In addition, in data set [1], the viability at 24 h, 10 µg/mL worked out at 68% and the viability at 24 h, 50 µg/mL is 2 ± 0.2%. In data set [4], the “antiplasmodial activity and selectivity (reported by other investigators)” value was “good selective antiplasmodial activity”; the combination with quinine entry is given as “act in synergy with quinine”. In addition, the IC50 in data set [2] (3D7, 48 h) is 1.2 µg/mL and 6.52 µM. In addition, in data set [2], the viability at 10 µg/mL was 26.9 ± 0.7% and the viability at 50 µg/mL was found to be 17.7 ± 1.5%.
Consider `O=c1cc(-c2ccc(O)cc2)oc2cc(O)cc(O)c12` [apigenin], for which the “antiplasmodial activity … (reported)” value in data set [4] was “moderate to weak antiplasmodial activity”.
Consider `Oc1cc(O)c2c(c1)O[C@H](c1cc(O)c(O)c(O)c1)[C@@H](O)C2` [gallocatechin (8), gallocatechin], for which the “activity against P. falciparum (previously reported)” value in data set [4] is “inactive”.
With `C[C@]1(O)CC[C@H]2[C@@H]3CCC4=CC(=O)CC[C@@H]4[C@H]3CC[C@@]21C` [lutenin, reference compound], in data set [4], the “antiplasmodial activity … (reported)” value was “moderate to weak antiplasmodial activity”.
For the compound `O=c1c(O)c(-c2cc(O)c(O)c(O)c2)oc2cc(O)cc(O)c12` [myricetin, reference compound], in data set [4], the “antiplasmodial activity … (reported)” value is given as “moderate to weak antiplasmodial activity”.
As for `O=c1c(O)c(-c2ccc(O)c(O)c2)oc2cc(O)cc(O)c12` [quercetin], in data set [4], the “antiplasmodial activity … (reported)” value is recorded as “moderate to weak antiplasmodial activity”.
Turning to pinoresinol [Pinoresinol (12)], the “activity against P. falciparum (previously reported)” value in data set [4] was “inactive”.
